According to US20030055106A1, “Therapeutic uses of peroxometallic compounds” (priority 1999, published 2003):

Assays:
[1] = tested on: endothelial cells having invaded Matrigel plugs; test: In vivo s.c. Matrigel plug assay; set-up: species or system C57B1/6N female mice; details: daily i.p. administration of 10 μg/mice or higher doses, day 1 to day 7
Procedure: FIG. 5: bpV(phen) inhibits angiogenesis in vivo in the s.c. Matrigel assay. Graph showing the results of an experiment expressed as the number of cells that migrated in three microscopic fields for each s.c. Matrigel plug. Fields were equidistant from the edge of the plug. […] (2) Four mice that received daily administration of 10 μg bpV(phen) during the 7 days post-implantation. (3) Four mice that received daily administration of 50 μg bpV(phen) during the 7 days post-implantation. (4) Four mice that received daily administration of 100 μg bpv(phen) during the 7 days post-implantation. (5) Four mice that received daily administration of PBS during the 7 days post-implantation.
This assay was performed as previously described (107). Briefly, Matrigel (liquid at 4° C.) was mixed with 200 ng/ml ECGS and injected s.c. into four C57B1/6N female mice (1 ml/mice). After injection, the Matrigel polymerized to form a plug. After 7 days, the animals were sacrified, and the Matrigel plugs were removed and fixed in 10% neutral-buffered formalin solution (Sigma Chemical Co.) and embedded in paraffin. Histological sections were stained with Masson's trichrome and angiogenesis was scored by counting the number of cells that migrated in three microscopic fields for each s.c. Matrigel plug.
Experiments were performed to determine whether bpV(phen) inhibits vessel formation in vivo. […]

[2] = tested on: ZR-75-1 human breast cancer; test: ZR-75-1 human breast cancer xenograft; type: in vivo, Female homozygous HSD nu/nu athymic mice; details: 2.5 mg/Kg daily i.p., 42 days; E1 replacement
Procedure: A) ZR-75-1 human breast cancer: ZR-75-1 human breast cancer cells obtained from the American Tissue Culture Collection (Rockville, Md.) were cultured in phenol red-free RPMI 1640. […] Female homozygous HSD nu/nu athymic mice (50 days old) were obtained from Harlan Sprague Dawley Inc. (Indianapolis, Ind.). Five mice were housed per vinyl cage, which was equipped with air filter lids and kept in laminar air flow hoods under pathogen-limiting conditions. The photoperiod was composed of a period of 14 h of light and a period of 10 h of darkness. Cages, bedding, and food (Agway Pro-Lab R-M-H diet #4018) were autoclaved prior to use. […] Bilateral ovariectomy (OVX) was performed on all animals one week prior to cell inoculation, under 2.5% isoflurane anesthesia mixed with oxygen. Simultaneously, an oestrogen (E2) implant was inserted subcutaneously to stimulate […] tumor growth and appearance. E2 implants were prepared in 1-cm long silastic tubing (inside diameter, 0.062 inch; outside diameter, 0.095 inch) containing 0.5 cm of estradiol/cholesterol diluted at a ratio of 1:10 (w:w). […] Statistical significance of treatment effect was assessed by repeated measures ANOVA after applying a power transformation to equalize residual variances and linearize the tumor growth curves.

[3] = tested on: PC3 prostate cancer cells; test: In vitro collagen-fibrin tumor progression model, PC-3; type: cell-based, human; details: renewed daily, 15 days
Procedure: FIG. 11: Illustration of the antitumor activity of bpV(phen) in vitro using PC3 prostate cancer cells. Collagen gels containing the PC3 cells were prepared according to the method of Esdale and Bard (1972). Briefly, stock collagen solution (3.5 mg/ml in acetic acid 0.02N; Rat tail) was added to a mixture composed of culture medium (5×), fetal bovine serum (FBS), bicarbonate (0.26M), and was neutralized with 0.1N NaOH. A cell suspension (1.42×10^6 cells/ml) was mixed into the collagen-medium mixture to obtain a final concentration of 2.5×10^5 cells/ml.
A DMEM medium, having a normal concentration of glucose and without phenol red, was used. After gelification (within 1 h) of the collagen mixture containing the cells, the gels were removed from their culture wells (mould) and interwoven into a receptor hole prepared in a fibrin gel, as previously described (103). The fibrin gel was made from a 0.3% fibrinogen solution in Hank's balanced salt solution. Fibrin was allowed to polymerize with thrombin (stock solution at 1.75 mg/ml) at a ratio of 1:003 v/v fibrin to thrombin. The collagen-fibrin complexes were then covered with serum-supplemented medium according to the cell types. An inhibitor of plasminogen activator (Trasylol, Parke Davies) was added into the medium at 10 μl/ml (100U/ml).
Cell behavior was periodically monitored over 15 days of culture. […]

Rat aorta rings = test: Rat aortic ring assay (cell/microvessel migration in fibrin gel); type: cell-based
Excerpt: FIG. 3: Micrographs of the cell migration from aortic rings embedded in fibrin (×12).
FIG. 4: Quantification of the cell migration from aortic rings in the presence of orthovanadate (plain bars); bpV(phen) (light gray bars); and bpV(pic) (dark gray bars). The control appears as an empty bar. Means and standard errors of the means are presented.
Rat aorta rings were embedded in fibrin matrix as previously described (107). Thoracic aortas excised from adult rats were rinsed in Hank's balanced salt solution (HBSS), and cleansed of periadventitial. One-mm long aortic rings were sectioned and rinsed in culture medium. Each of the aortic rings were then embedded in fibrin gel matrix. Migration of microvessels in fibrin gel was quantified by measuring the distance from the external surface of rat aortic rings towards the migrating vessels. Measurements were performed at day 15 by digitizing morphometry with a NIH image analysis system (FIGS. 3 and 4).

O.O.O.OO.OO.[K+].[OH-].[V].c1cnc2c(c1)ccc1cccnc12 [bpV(phen), potassium bisperoxo(1,10-phenanthroline)oxovanadate]
number of endothelial cells having invaded Matrigel plugs [1]: decreased by half
tumor size [2]: do not resulted in increase of tumor size
progression of PC-3 cells (secondary tumors, migration front) ([3]; 2 μM): a decrease in the size of the secondary tumor was observed
progression of PC-3 cells (secondary tumors, migration front) ([3]; 5 and 10 μM): there was no migration front and there were no secondary tumors
cell migration from aortic rings (Rat aorta rings; 1 μM, compared to control): impaired
cell migration from aortic rings (Rat aorta rings; 3.5 μM): strong inhibition
